Data from patent US20260297109A1, “COMPOUNDS AS SUMO ACTIVATING ENZYME INHIBITORS” (WIGEN BIOMEDICINE TECHNOLOGY (SHANGHAI) CO., LTD., priority 2022, published 2026).

These compounds were tested against T1, SAE (Homo sapiens, UniProt Q9UBT2) (assay: SUMO IF: in vitro inhibitory activity assay against SAE in HCT116 cells (SUMO-2/3 immunofluorescence)). Conditions: class symbols, 6 h at 37° C.
T1 construct: endogenous in cells; host or cells: HCT116
T1 sequence (Q9UBT2 1-640): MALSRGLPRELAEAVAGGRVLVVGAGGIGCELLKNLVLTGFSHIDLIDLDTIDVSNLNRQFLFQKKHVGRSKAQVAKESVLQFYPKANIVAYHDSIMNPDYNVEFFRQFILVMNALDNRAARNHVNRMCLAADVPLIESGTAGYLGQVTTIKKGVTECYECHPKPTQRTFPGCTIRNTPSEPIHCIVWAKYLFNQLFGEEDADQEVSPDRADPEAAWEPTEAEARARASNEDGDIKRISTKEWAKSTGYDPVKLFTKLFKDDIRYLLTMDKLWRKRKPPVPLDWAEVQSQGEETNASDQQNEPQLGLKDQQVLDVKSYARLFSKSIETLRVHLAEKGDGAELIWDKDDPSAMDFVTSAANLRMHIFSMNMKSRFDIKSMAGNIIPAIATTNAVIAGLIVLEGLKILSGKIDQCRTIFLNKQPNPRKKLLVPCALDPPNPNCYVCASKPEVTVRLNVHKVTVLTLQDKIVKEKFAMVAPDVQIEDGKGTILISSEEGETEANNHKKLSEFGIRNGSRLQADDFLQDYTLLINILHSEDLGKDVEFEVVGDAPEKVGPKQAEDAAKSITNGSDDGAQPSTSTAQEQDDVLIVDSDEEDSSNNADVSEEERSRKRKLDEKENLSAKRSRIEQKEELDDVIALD
T1 sequence (Q9UBE0 1-346): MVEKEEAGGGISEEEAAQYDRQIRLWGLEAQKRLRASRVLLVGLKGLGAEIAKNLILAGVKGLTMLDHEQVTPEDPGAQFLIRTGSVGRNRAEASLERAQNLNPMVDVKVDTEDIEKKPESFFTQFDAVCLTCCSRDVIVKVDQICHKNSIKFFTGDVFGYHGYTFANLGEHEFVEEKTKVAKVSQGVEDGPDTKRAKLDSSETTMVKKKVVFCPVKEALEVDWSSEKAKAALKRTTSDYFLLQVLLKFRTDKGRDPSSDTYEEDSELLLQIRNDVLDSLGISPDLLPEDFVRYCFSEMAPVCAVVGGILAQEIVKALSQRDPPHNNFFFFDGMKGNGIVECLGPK
Assay type: cell-based
Procedure, shortened: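 HCT116 cells were treated with compound for 6 h at 37 °C, then PFA-fixed, Triton-permeabilised and BSA-blocked. They were stained overnight at 4 °C with anti-SUMO-2/3 (18H8) rabbit mAb (1:400), then with FITC anti-rabbit IgG (1:300). Fluorescence versus DMSO gave inhibition rate and IC50.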

Row | Structure (SMILES) | IC50
1 | NS(=O)(=O)OC[C@H]1[C@H](F)[C@@H](Nc2ncncc2C(=O)c2cc3c(s2)CCC[C@]32NC(=O)Cc3ccc(Cl)cc32)C[C@@H]1O [Compound 629] | > 200 nM
2 | NS(=O)(=O)OC[C@H]1[C@H](F)[C@@H](Nc2ncncc2C(=O)c2cc3c(s2)C(=O)CC32NCCc3ccc(Cl)cc32)C[C@@H]1O (some centres unmarked) [Compound 630] | 50 to 200 nM
3 | NS(=O)(=O)OC[C@H]1[C@H](F)[C@@H](Nc2ncncc2C(=O)c2cc3c(s2)C(=O)C[C@@]32NCCc3ccc(Cl)cc32)C[C@@H]1O [Compound 631] | > 200 nM
4 | NS(=O)(=O)OC[C@H]1[C@H](F)[C@@H](Nc2ncncc2C(=O)c2cc3c(s2)C(=O)C[C@]32NCCc3ccc(Cl)cc32)C[C@@H]1O [Compound 632] | 50 to 200 nM
5 | NS(=O)(=O)CC[C@H]1[C@H](F)[C@@H](Nc2ncncc2C(=O)c2cc3c(s2)CCCC32NCCc3ccc(Cl)cc32)C[C@@H]1O (some centres unmarked) [Compound 636] | > 200 nM
6 | NS(=O)(=O)CC[C@H]1[C@H](F)[C@@H](Nc2ncncc2C(=O)c2cc3c(s2)CCC[C@@]32NCCc3ccc(Cl)cc32)C[C@@H]1O [Compound 637] | > 200 nM
7 | NS(=O)(=O)CC[C@H]1[C@H](F)[C@@H](Nc2ncncc2C(=O)c2cc3c(s2)CCC[C@]32NCCc3ccc(Cl)cc32)C[C@@H]1O [Compound 638] | 50 to 200 nM
8 | NS(=O)(=O)CC[C@H]1[C@H](F)[C@@H](Nc2ncncc2C(=O)c2cc3c(s2)C=C[C@@]32NCCc3ccc(Cl)cc32)C[C@@H]1O [Compound 639] | > 200 nM
9 | NS(=O)(=O)CC[C@H]1[C@H](F)[C@@H](Nc2ncncc2C(=O)c2cc3c(s2)C=C[C@]32NCCc3ccc(Cl)cc32)C[C@@H]1O [Compound 640] | 50 to 200 nM
10 | NS(=O)(=O)CC[C@H]1[C@H](F)[C@@H](Nc2ncncc2C(=O)c2cc3c(s2)CC[C@@]32NCCc3ccc(Cl)cc32)C[C@@H]1O [Compound 641] | > 200 nM
11 | NS(=O)(=O)CC[C@H]1[C@H](F)[C@@H](Nc2ncncc2C(=O)c2cc3c(s2)CC[C@]32NCCc3ccc(Cl)cc32)C[C@@H]1O [Compound 642] | 50 to 200 nM
12 | COc1ccc2c(c1)[C@]1(CCCc3sc(C(=O)c4cncnc4N[C@H]4C[C@H](O)[C@@H](COS(N)(=O)=O)[C@@H]4F)cc31)NCC2 [Compound 643] | > 200 nM
13 | COc1ccc2c(c1)[C@@]1(CCCc3sc(C(=O)c4cncnc4N[C@H]4C[C@H](O)[C@@H](COS(N)(=O)=O)[C@@H]4F)cc31)NCC2 [Compound 644] | > 200 nM
14 | CCN1Cc2sc(C(=O)c3cncnc3N[C@H]3C[C@H](O)[C@@H](COS(N)(=O)=O)[C@@H]3F)cc2C2(C1)NCCc1ccc(Cl)cc12 (some centres unmarked) [Compound 645] | ≤ 50 nM
15 | CC(C)N1Cc2sc(C(=O)c3cncnc3N[C@H]3C[C@H](O)[C@@H](COS(N)(=O)=O)[C@@H]3F)cc2C2(C1)NCCc1ccc(Cl)cc12 (some centres unmarked) [Compound 648] | ≤ 50 nM
16 | NS(=O)(=O)OC[C@H]1[C@H](F)[C@@H](Nc2ncncc2C(=O)c2cc3c(s2)CN(CC(F)(F)F)CC32NCCc3ccc(Cl)cc32)C[C@@H]1O (some centres unmarked) [Compound 651] | ≤ 50 nM

Row | Structure (SMILES) | IC50
17 | C=CCN1Cc2sc(C(=O)c3cncnc3N[C@H]3C[C@H](O)[C@@H](COS(N)(=O)=O)[C@@H]3F)cc2C2(C1)NCCc1ccc(Cl)cc12 (some centres unmarked) [Compound 654] | ≤ 50 nM
18 | C#CCN1Cc2sc(C(=O)c3cncnc3N[C@H]3C[C@H](O)[C@@H](COS(N)(=O)=O)[C@@H]3F)cc2C2(C1)NCCc1ccc(Cl)cc12 (some centres unmarked) [Compound 657] | ≤ 50 nM
19 | [2H]C1([2H])Cc2ccc(Cl)cc2C2(CCCc3sc(C(=O)c4cncnc4N[C@H]4C[C@H](O)[C@@H](COS(N)(=O)=O)[C@@H]4F)cc32)N1 (some centres unmarked) [Compound 660] | 50 to 200 nM
20 | [2H]C1([2H])CNC2(CCCc3sc(C(=O)c4cncnc4N[C@H]4C[C@H](O)[C@@H](COS(N)(=O)=O)[C@@H]4F)cc32)c2cc(Cl)ccc21 (some centres unmarked) [Compound 663] | ≤ 50 nM
21 | Cc1ccc2c(c1)[C@@]1(CCCc3sc(C(=O)c4cncnc4N[C@H]4C[C@H](O)[C@@H](COS(N)(=O)=O)[C@@H]4F)cc31)NCC2 [Compound 666] | 50 to 200 nM
22 | NS(=O)(=O)OC[C@H]1[C@H](F)[C@@H](Nc2ncncc2C(=O)c2cc3c(s2)CCC[C@]32NCCc3ccc(C4CC4)cc32)C[C@@H]1O [Compound 667] | 50 to 200 nM
23 | C#Cc1ccc2c(c1)[C@@]1(CCCc3sc(C(=O)c4cncnc4N[C@H]4C[C@H](O)[C@@H](COS(N)(=O)=O)[C@@H]4F)cc31)NCC2 [Compound 668] | 50 to 200 nM
24 | NS(=O)(=O)OC[C@H]1[C@H](F)[C@@H](Nc2ncncc2C(=O)c2cc3c(s2)CCC[C@]32NCCc3ccc(C(F)(F)F)cc32)C[C@@H]1O [Compound 669] | 50 to 200 nM
25 | NS(=O)(=O)OC[C@H]1[C@H](F)[C@@H](Nc2ncncc2C(=O)c2cc3c(s2)CCC[C@]32NCCc3cc(F)c(F)cc32)C[C@@H]1O [Compound 670] | ≤ 50 nM
26 | NS(=O)(=O)OC[C@H]1[C@H](F)[C@@H](Nc2ncncc2C(=O)c2cc3c(s2)CCC[C@]32NCCc3cc(F)c(Cl)cc32)C[C@@H]1O [Compound 671] | ≤ 50 nM
27 | NS(=O)(=O)OC[C@H]1[C@H](F)[C@@H](Nc2ncncc2C(=O)c2cc3c(s2)CCC[C@]32NCCc3cc(Cl)c(Cl)cc32)C[C@@H]1O [Compound 672] | ≤ 50 nM
28 | Cc1cc2c(cc1Cl)[C@@]1(CCCc3sc(C(=O)c4cncnc4N[C@H]4C[C@H](O)[C@@H](COS(N)(=O)=O)[C@@H]4F)cc31)NCC2 [Compound 673] | ≤ 50 nM
29 | N#Cc1cc2c(cc1Cl)[C@@]1(CCCc3sc(C(=O)c4cncnc4N[C@H]4C[C@H](O)[C@@H](COS(N)(=O)=O)[C@@H]4F)cc31)NCC2 [Compound 674] | ≤ 50 nM
30 | COc1cc2c(cc1Cl)[C@@]1(CCCc3sc(C(=O)c4cncnc4N[C@H]4C[C@H](O)[C@@H](COS(N)(=O)=O)[C@@H]4F)cc31)NCC2 [Compound 675] | 50 to 200 nM
31 | NS(=O)(=O)OC[C@H]1[C@H](F)[C@@H](Nc2ncncc2C(=O)c2cc3c(s2)CCC[C@]32NCCc3cc(F)c(Cl)c(F)c32)C[C@@H]1O [Compound 676] | ≤ 50 nM

Same assay, conditions: numeric values, 6 h at 37° C.

Row | Structure (SMILES) | IC50
32 | CCN1Cc2sc(C(=O)c3cncnc3N[C@H]3C[C@H](O)[C@@H](COS(N)(=O)=O)[C@@H]3F)cc2[C@@]2(C1)NCCc1ccc(Cl)cc12 [Compound 646] | > 1000 nM
33 | CCN1Cc2sc(C(=O)c3cncnc3N[C@H]3C[C@H](O)[C@@H](COS(N)(=O)=O)[C@@H]3F)cc2[C@]2(C1)NCCc1ccc(Cl)cc12 [Compound 647] | 19.9 nM
34 | CC(C)N1Cc2sc(C(=O)c3cncnc3N[C@H]3C[C@H](O)[C@@H](COS(N)(=O)=O)[C@@H]3F)cc2[C@@]2(C1)NCCc1ccc(Cl)cc12 [Compound 649] | > 1000 nM
35 | CC(C)N1Cc2sc(C(=O)c3cncnc3N[C@H]3C[C@H](O)[C@@H](COS(N)(=O)=O)[C@@H]3F)cc2[C@]2(C1)NCCc1ccc(Cl)cc12 [Compound 650] | 21.7 nM
36 | NS(=O)(=O)OC[C@H]1[C@H](F)[C@@H](Nc2ncncc2C(=O)c2cc3c(s2)CN(CC(F)(F)F)C[C@@]32NCCc3ccc(Cl)cc32)C[C@@H]1O [Compound 652] | > 1000 nM
37 | NS(=O)(=O)OC[C@H]1[C@H](F)[C@@H](Nc2ncncc2C(=O)c2cc3c(s2)CN(CC(F)(F)F)C[C@]32NCCc3ccc(Cl)cc32)C[C@@H]1O [Compound 653] | 25.9 nM
38 | C=CCN1Cc2sc(C(=O)c3cncnc3N[C@H]3C[C@H](O)[C@@H](COS(N)(=O)=O)[C@@H]3F)cc2[C@@]2(C1)NCCc1ccc(Cl)cc12 [Compound 655] | > 1000 nM
39 | C=CCN1Cc2sc(C(=O)c3cncnc3N[C@H]3C[C@H](O)[C@@H](COS(N)(=O)=O)[C@@H]3F)cc2[C@]2(C1)NCCc1ccc(Cl)cc12 [Compound 656] | 25.1 nM
40 | C#CCN1Cc2sc(C(=O)c3cncnc3N[C@H]3C[C@H](O)[C@@H](COS(N)(=O)=O)[C@@H]3F)cc2[C@@]2(C1)NCCc1ccc(Cl)cc12 [Compound 658] | > 1000 nM
41 | C#CCN1Cc2sc(C(=O)c3cncnc3N[C@H]3C[C@H](O)[C@@H](COS(N)(=O)=O)[C@@H]3F)cc2[C@]2(C1)NCCc1ccc(Cl)cc12 [Compound 659] | 20.3 nM
42 | [2H]C1([2H])Cc2ccc(Cl)cc2[C@]2(CCCc3sc(C(=O)c4cncnc4N[C@H]4C[C@H](O)[C@@H](COS(N)(=O)=O)[C@@H]4F)cc32)N1 [Compound 661] | > 1000 nM
43 | [2H]C1([2H])Cc2ccc(Cl)cc2[C@@]2(CCCc3sc(C(=O)c4cncnc4N[C@H]4C[C@H](O)[C@@H](COS(N)(=O)=O)[C@@H]4F)cc32)N1 [Compound 662] | 23.5 nM
44 | [2H]C1([2H])CN[C@]2(CCCc3sc(C(=O)c4cncnc4N[C@H]4C[C@H](O)[C@@H](COS(N)(=O)=O)[C@@H]4F)cc32)c2cc(Cl)ccc21 [Compound 665] | 20.6 nM
